Literature values, collected in patent US20160107977A1, “METHODS OF SYNTHESIS OF INGENOL AND INTERMEDIATES THEREOF” (LEO LABORATORIES LIMITED, priority 2013, published 2016).

Assays:
[1] = tested on: breast cancer cell line T47D; conditions: p53-mediated pathway, Vigone et al. 2005
[2] = tested on: breast cancer cell line MDA-MB-231; conditions: p53-mediated pathway, Vigone et al. 2005
Epstein-Barr virus = conditions: lymphoblastoid cells; Keller et al. 1982

Row | SMILES | antitumour activity [1] | antitumour activity [2] | Epstein-Barr virus induction (Epstein-Barr virus)
1 | CC1=CC23C(=O)C(C=C(COC(=O)c4ccccc4)C(O)C2(O)C1O)C1C(CC3C)C1(C)C (stereo not drawn) [ingenol-20-benzoate] | antitumour activity characterized by inhibition of cell growth and apoptotic cell death | antitumour activity characterized by inhibition of cell growth and apoptotic cell death | –
2 | CCCCCCCCCCCCCCCC(=O)O[C@H]1C(C)=C[C@]23C(=O)[C@@H](C=C(CO)[C@@H](O)[C@]12O)[C@H]1[C@@H](C[C@H]3C)C1(C)C | – | – | most potent Epstein-Barr virus inducer
